Source: US4474761A, “Oligopeptides with specific inhibiting properties of collagen induced aggregation, process for preparing the same and pharmaceutical compositions containing them” (Choay S.A., priority 1980, dated 1984)
Where no end group is shown, it is not given here. [ ]: non-standard residue; d: D form. Hyp = O=C(O)[C@@H]1C[C@@H](O)CN1

Tested on: platelet membranes
Test: Linkage of tritiated nonapeptide to platelet membranes (filtration)
Type: binding
Conditions: for Linkage (%) after dissociation time: Table IX
Procedure: The study of the nature of the interaction between type III collagen and platelets is carried out in the presence of tritiated (labelled) nonapeptide of formula: […]
The complete platelets or the platelet membranes solubilized in triton (0.15%) are incubated in a physiological buffer of the type described above in the serotonin release test (in a total volume of 0.2 ml) at a temperature of 37° C. for 15 minutes. The incubation is carried out in presence of tritiated nonapeptide the specific activity of which is of […].
The nonapeptide fixed or linked to the platelet or to the membranes is separated from the free nonapeptide by filtration of the incubation medium through multiporous membranes having porosities of 0.8μ and 0.45μ respectively. The radio activity is directly determined on the filters and the percentage of linkages determined according to the following formula: [formula]
(c) Table VIII relates to the linkage specificity. It represents the linkage percentages between the platelet membranes and different peptides of the invention in the presence of various aggregation inducers (15 ng of peptide, 30 μg of platelet membrane).
The specificity of the linkage is assessed by the total displacement of the corresponding radio-activity by an excess of non labelled peptide of the invention. This excess corresponds to an amount of 100 to 1000 times more than the amount of non labelled peptide which is necessary to induce adhesion of the platelets.
Said reversibility has been studied in the presence of two concentrations of labelled (nona)peptide which are respectively of 3 and 6 ng, for 30 μg of platelet membranes. After the binding of the labelled nonapeptide to the membranes, the incubation media are diluted to the 80 volumes:
in the absence of non labelled (nona)peptide;
and in the presence of an excess of non labelled (nona)peptide (as indicated under c) for the reversibility test).
The percentage of linkage is then determined as a function of an incubation duration ranging from 0 to 15 minutes.
The reversibility is measured by the dissociation factor and the dissociation time.

## Nc1ncnc2c1ncn2[C@@H]1O[C@H](COP(=O)(O)OP(=O)(O)O)[C@@H](O)[C@H]1O [ADP, reference compound]
Table VIII, Nonapeptide H^3 15 ng, platelet membranes 30 μg, agent 10^-2 M
  Linkage % of Nonapeptide H^3 in presence of agent: 4.3%

## CNCC(O)c1ccc(O)c(O)c1 (stereo not shown) [Adrenaline, reference compound]
Table VIII, Nonapeptide H^3 15 ng, platelet membranes 30 μg, agent 100 μg
  Linkage % of Nonapeptide H^3 in presence of agent: 5.4%

## CCCCC/C=C\C/C=C\C/C=C\C/C=C\CCCC(=O)O [Arachidonic acid, reference compound]
Table VIII, Nonapeptide H^3 15 ng, platelet membranes 30 μg, agent 6 nM
  Linkage % of Nonapeptide H^3 in presence of agent: 4.1%

## GK[Hyp]GE[Hyp]GPK [Nonapeptide H^3]
Nonapeptide H^3 3 ng, 30 μg membranes, dilution 1/80, 0'
  Linkage (%) after dissociation time: 3.2%
Nonapeptide H^3 3 ng, dilution 1/80 + 100 μg of nonapeptide, 0'
  Linkage (%) after dissociation time: 3.2%
Nonapeptide H^3 3 ng, dilution 1/80 + 100 μg of nonapeptide, 2'
  Linkage (%) after dissociation time: 1%
Nonapeptide H^3 3 ng, dilution 1/80 + 100 μg of nonapeptide, 10'
  Linkage (%) after dissociation time: 0.5%
Nonapeptide H^3 3 ng, dilution 1/80 + 100 μg of nonapeptide, 15'
  Linkage (%) after dissociation time: 0.1%
Nonapeptide H^3 3 ng, dilution 1/80, 2'
  Linkage (%) after dissociation time: 1.75%
Nonapeptide H^3 3 ng, dilution 1/80, 5'
  Linkage (%) after dissociation time: 1.55%
Nonapeptide H^3 3 ng, dilution 1/80, 10'
  Linkage (%) after dissociation time: 1%
Nonapeptide H^3 3 ng, dilution 1/80, 15'
  Linkage (%) after dissociation time: 0.6%
Nonapeptide H^3 6 ng, dilution 1/80 + 100 μg of nonapeptide, 0'
  Linkage (%) after dissociation time: 5.9%
Nonapeptide H^3 6 ng, dilution 1/80 + 100 μg of nonapeptide, 2'
  Linkage (%) after dissociation time: 3%
Nonapeptide H^3 6 ng, dilution 1/80 + 100 μg of nonapeptide, 10'
  Linkage (%) after dissociation time: 1.5%
Nonapeptide H^3 6 ng, dilution 1/80 + 100 μg of nonapeptide, 15'
  Linkage (%) after dissociation time: 1%
Nonapeptide H^3 6 ng, dilution 1/80, 0'
  Linkage (%) after dissociation time: 5.9%
Nonapeptide H^3 6 ng, dilution 1/80, 2'
  Linkage (%) after dissociation time: 4.8%
Nonapeptide H^3 6 ng, dilution 1/80, 5'
  Linkage (%) after dissociation time: 3%
Nonapeptide H^3 6 ng, dilution 1/80, 10'
  Linkage (%) after dissociation time: 2.4%
Nonapeptide H^3 6 ng, dilution 1/80, 15'
  Linkage (%) after dissociation time: 1.5%
Table VI, Nonapeptide H^3 3 ng, proteic concentration 20 μg
  Linkage (%): 2.1%
Table VI, Nonapeptide H^3 3 ng, proteic concentration 40 μg
  Linkage (%): 3.8%
Table VI, Nonapeptide H^3 3 ng, proteic concentration 60 μg
  Linkage (%): 4.3%
Table VI, Nonapeptide H^3 3 ng, proteic concentration 80 μg
  Linkage (%): 4.6%
Table VI, Nonapeptide H^3 3 ng, proteic concentration 100 μg
  Linkage (%): 5.3%
Table VI, Nonapeptide H^3 30 ng, proteic concentration 20 μg
  Linkage (%): 3.5%
Table VI, Nonapeptide H^3 30 ng, proteic concentration 40 μg
  Linkage (%): 4.3%
Table VI, Nonapeptide H^3 30 ng, proteic concentration 60 μg
  Linkage (%): 5%
Table VI, Nonapeptide H^3 30 ng, proteic concentration 80 μg
  Linkage (%): 5.8%
Table VI, Nonapeptide H^3 30 ng, proteic concentration 100 μg
  Linkage (%): 6.15%
Table VI, Nonapeptide H^3 30 ng, proteic concentration 200 μg
  Linkage (%): 10.4%
Table VI, Nonapeptide H^3 30 ng, proteic concentration 400 μg
  Linkage (%): 13%
Table VI, Nonapeptide H^3 30 ng, proteic concentration 450 μg
  Linkage (%): 13.8%
Table VII, Nonapeptide H^3 3 ng
  Linkage (%): 1.6%
Table VII, Nonapeptide H^3 6 ng
  Linkage (%): 3.5%
Table VII, Nonapeptide H^3 12 ng
  Linkage (%): 5.5%
Table VII, Nonapeptide H^3 60 ng
  Linkage (%): 7.5%
Table VII, Nonapeptide H^3 300 ng
  Linkage (%): 10.5%
Table VIII, Nonapeptide H^3 15 ng, platelet membranes 30 μg, agent 0
  Linkage (%): 4%
